{"source": "patent US5346693A", "about": "“Depigmenting cosmetic or dermatological composition containing arbutoside derivatives” (L'Oreal, priority 1991, dated 1994)", "origin": "cited, not measured here", "system": "melanocyte", "data": [{"smiles": "Oc1ccc(O)cc1", "note": "[hydroquinone]", "values": [{"measurement": "cytotoxicity to the melanocyte", "result": "cytotoxic to the melanocyte"}]}]}
